Results published in patent US6565876B1, “Carnitine and inositol phosphate-containing composition useful as dietary supplement or drug” (Sigma-Tau HealthScience S.p.A., priority 1999, dated 2003).

Columns and labels:
[1] = system: platelets from healthy volunteers; experiment: Anti-platelet aggregation activity (collagen-induced, Born method); format: cell-based, human; conditions: collagen 2.5 and 5 ng/mL, 10 min incubation, IP6 4 and 8 ng/mL
Experimental: The anti-platelet-aggregation activity of the composition according to the invention was assessed in blood samples from healthy volunteers. […] The aggregating agent used was collagen (2.5 ng/mL, 5 ng/mL) and the aggregation induced was measured photometrically according to the method described by Born (Born G. V., Nature, 194:927, 1962). […] The doses of propionyl L-carnitine used were 10 ng and 20 ng/mL, while the IP6 doses were 4 ng and 8 ng/mL.

[2] = system: muscle lipoperoxidation (malondialdehyde); experiment: Muscle fatigue test, forced muscular exercise on moving belt, MDA in gastrocnemius muscle; format: in vivo, rats; conditions: propionyl L-carnitine 200 mg/kg, IP6 100 mg/kg, three days before exercise; for MDA content in muscle after 5 min: gastrocnemius muscle 5 min after end of exercise; for MDA content in muscle after 30 min: gastrocnemius muscle 30 min after end of exercise
Experimental: Forced muscular exercise was tested in various groups of rats by making them run on a moving belt at controlled speed and angle of tilt, as described by Li (Li J. X., Acta Pharmacologica Sinica, 20:126, 1999) and Husain (Husain K., Pathophysiology, 4:69, 1997). The animals were made to run on an approximately 5° slope and at a belt speed of 28 m/min. The animals' stamina reached the point of exhaustion after approximately 85 min of exercise. The test was carried out in groups of animals which, during the three days preceding exercise, received 200 mg/kg of propionyl L-carnitine or 100 mg/kg of IP6 alone or in combination. Five and thirty minutes, respectively, after the end of exercise, samples of gastrocnemius muscle were taken from the sacrificed animals and used for measuring the malondialdehyde (MDA) content as a marker for the level of lipoperoxidation by means of reaction with thiobarbituric acid according to the method described by Ohkawa (Ohkawa H., Anal. Biochem., 95:351, 1979).

[3] = system: swimming endurance in forced swimming; experiment: Swimming endurance test; format: in vivo, mice; conditions: propionyl L-carnitine 200 mg/kg, IP6 100 mg/kg, oral on the three days preceding the test
Experimental: Since IP6, which is rich in phosphate groups, is a useful energy reserve, a series of tests were performed to establish whether its administration may increase the swimming endurance time in mice submitted to forced swimming in a rectangular tank full of water, according to the technique described by Zheng (Zheng R. L., Acta Pharmacol. Sinica, 14:47, 1993) and whether its effect could be enhanced by using it in combination with a carnitine, such as, for instance, propionyl L-carnitine. The tests were performed on various groups of animals treated with propionyl L-carnitine (200 mg/kg) or with IP6 (100 mg/kg) alone or with the two compounds in combination. The compounds were administered orally on the three days preceding the test. In the animals thus treated, swimming endurance time was measured as compared to control animals.

chick cerebral neurons = experiment: Neuronal hypoxia, NaCN-induced, ATP assay; format: cell-based; conditions: propionyl L-carnitine 100 mg/L, IP6 50 mg/L; for ATP after reoxygenation time 0 / ATP after reoxygenation time 30 min: NaCN 1 mmol/L for 120 min; for ATP after reoxygenation time 0: reoxygenation 0; for ATP after reoxygenation time 30 min: reoxygenation 30 min
Experimental: To assess the protective activity of the composition according to the invention on hypoxia-induced damage at the neuronal level, tests were performed on cultures of chick cerebral neurons in which the reduction in cell respiration was induced by introducing NaCN into the cultures. […] The chick cerebral neuron cultures were prepared according to the technique described by […]., Nature, 281:378, 1979). Cytotoxic hypoxia was induced by adding NaCN to the culture medium to a final concentration of 1 mmol/L. After 120 min the medium was replaced by an NaCN-free medium, and the metabolism of the cells was blocked by washing with an iced buffer solution. The ATP assay was performed according to the procedure described by Werner (Werner A. J., Chromatogr. Biomed. Appl., 421:257, 1987).

[4] = system: carrageenin-induced oedema of the rat paw; experiment: Carrageenin oedema test; format: in vivo; conditions: 250 mg/kg each, oral
Experimental: To assess the anti-inflammatory effect of the new composition the carrageenin oedema test was used, in which rat paws are injected with carrageenin. The injection of 0.1 mL of 1% carrageenin solution (Sigma Chemical, St. Louis, Mo., USA) in the subplantar area of the rat's right paw induced marked oedema of the paw which reached its maximum intensity 4-5 hours after injection. The oedema was measured by mercury plethysmography at various different time intervals up to the fourth hour after carrageenin injection. Both propionyl L-carnitine (250 mg/kg) and IP6 (250 mg/kg) were administered orally half an hour prior to the subplantar carrageenin injection.

[5] = system: atherosclerotic vascular lesions of the abdominal aorta; experiment: Anti-atherosclerotic activity, atherogenic diet; format: in vivo, male Wistar rats; conditions: rats; atherogenic diet six weeks; daily 150 mg/kg propionyl carnitine, 100 mg/kg IP6
Experimental: […] according to the regimen proposed by Melinow (Melinow M. R., Atherosclerosis, 48:105, 1983). At the end of the sixth week of treatment, marked atherosclerotic vascular lesions had formed which were particularly pronounced at the abdominal aorta level. The severity of these lesions was evaluated by a morphometric method, measuring the thickness of the abdominal aorta and the intensity of the staining induced by Sudan IV with a progressive scoring system from 1 to 5. In these tests, the rats received daily administrations of 150 mg/kg of propionyl carnitine and 100 mg/kg of IP6, together with their atherogenic diets.

ornithine decarboxylase = experiment: Antiproliferative activity, teleocidin-induced ornithine decarboxylase in epidermis; format: in vivo, mice
[6] = system: collagen-induced type II arthritis; experiment: Collagen-induced arthritis test; format: in vivo; conditions: mice; 200 mg/kg each, oral, from day of collagen injection to end of sixth week; oedema scores 1 to 4
Experimental: Confirmation of the anti-inflammatory effects of the composition according to the invention was obtained using as a test collagen-induced type II arthritis according to the technique described by […]. Exp. Med., 146:857, 1977). In this test, a group of mice were immunised by intradermal injection at the base of the tail of 100 μg of natural collagen emulsified in Freund complete adjuvant (Difco Labs., Detroit, USA). After three weeks, the animals thus treated were again injected intraperitoneally with the same dose of emulsified collagen. The treatment with propionyl […] (200 mg/kg) or with inositol hexaphosphate (200 mg/kg) or with the two compounds in combination was administered orally from the day of collagen injection up to the end of the sixth week. One group of animals received no treatment and served as a control group. The intensity of the oedema was assessed by assigning scores from 1 to 4.

[7] = rat paw oedema, half an hour before carrageenin
[8] = mouse epidermis 5 h after teleocidin 5 μg/mouse s.c., oral pretreatment propionyl L-carnitine 200 mg/kg, IP6 100 mg/kg

`O=P(O)(O)O[C@H]1[C@H](OP(=O)(O)O)[C@@H](OP(=O)(O)O)[C@H](OP(=O)(O)O)[C@@H](OP(=O)(O)O)[C@H]1OP(=O)(O)O` [IP6, inositol hexaphosphate] was tested, and the “aggregating action of collagen, reduced to” value [1] was 40%, the “MDA content in muscle after 5 min” value [2] was 200 ± 16 nmol/g (WW) and the “MDA content in muscle after 30 min” value [2] was 205 ± 8 nmol/g (WW). For the same compound, the “muscle lipoperoxidation in muscle homogenate (in words)” value [2] was “capable of reducing the levels of muscle lipoperoxidation”, the “Swimming time” value [3] was 136 ± 16 min and the “mean swimming endurance time versus controls (in words)” value [3] was “slightly increased”. For the same compound, the “ATP after reoxygenation time 0” value (chick cerebral neurons) was 12.4 ± 2.1 nmol g protein, the “ATP after reoxygenation time 30 min” value (chick cerebral neurons) was 16.9 ± 1.9 nmol g protein and the “ATP levels after anoxia and reoxygenation (in words)” value (chick cerebral neurons; NaCN 1 mmol/L) was “a lesser reduction of ATP levels is observed as well as more rapid restoration of ATP levels”. For the same compound, the “% inhibition after 1 h” value ([4]; rat paw oedema, half an hour before carrageenin, 1 h) was 15 ± 1.1%, the “% inhibition after 2 h” value [4, 7] was 20 ± 2.1% and the “% inhibition after 4 h” value [4, 7] was 15 ± 0.6%. The “inhibitory action on the inflammatory reaction induced by carrageenin (in words)” value ([4]; rat) was “slight inhibitory action”, the “protective effect against atherosclerotic lesions (morphometric examination and Sudan IV staining)” value [5] was “only a slight protective effect” and the Ornithine decarboxylase activity (ornithine decarboxylase; [8]) was 1.95 ± 0.2 nMol of CO2/60 min/mg protein. The “reduction of the teleocidin-induced increase in ornithine decarboxylase activity (in words)” value (ornithine decarboxylase; oral pretreatment propionyl L-carnitine 200 mg/kg, IP6 100 mg/kg) was “significantly reduced” and the oedema inhibition [6] was “approximately 20%”.
In the case of `CCC(=O)OC(CC(=O)[O-])C[N+](C)(C)C` [Propionyl L-carnitine, propionyl L-carnitine], the “inhibition of the aggregating action of collagen” value ([1]; propionyl L-carnitine 10 and 20 ng/mL) was “does not inhibit”, the “MDA content in muscle after 5 min” value [2] was 210 ± 10 nmol/g (WW) and the “MDA content in muscle after 30 min” value [2] was 212 ± 14 nmol/g (WW). For the same compound, the “Swimming time” value [3] was 116 ± 19 min, the “ATP after reoxygenation time 0” value (chick cerebral neurons) was 11.1 ± 1.6 nmol g protein and the “ATP after reoxygenation time 30 min” value (chick cerebral neurons) was 16.3 ± 2.2 nmol g protein. The “% inhibition after 2 h” value [4, 7] was 15 ± 0.3%, the “% inhibition after 4 h” value [4, 7] was 8 ± 0.9% and the Ornithine decarboxylase activity (ornithine decarboxylase; [8]) was 2.1 ± 0.2 nMol of CO2/60 min/mg protein. The oedema inhibition [6] was “no inhibitory effect”.
teleocidin was tested, and the Ornithine decarboxylase activity (ornithine decarboxylase; mouse epidermis 5 h after teleocidin 5 μg/mouse s.c. alone, no pretreatment) was 2.6 ± 0.4 nMol of CO2/60 min/mg protein.
